Measurements as given in ChEMBL document CHEMBL1201862, “PubChem BioAssay data set” (2004).
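Five compound concentrations were applied to cells in 96-well plates for 48 hours; endpoints were derived by simple linear interpolation of the resulting dose-response curve. GI50 = concentration required for 50% inhibition of growth.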 The source made the active and inactive calls. No stated cut-off is given here; in the data, active = GI50 up to about 1.1 µM and inactive = higher.

Key:
Assay in all cases: NCI-60 cell line screen, 48 h
[1] = test system: A498
[2] = test system: EKVX
[3] = test system: SK-MEL-2
[4] = test system: MOLT-4
[5] = test system: Hs-578T
[6] = test system: NCI-H460
[7] = test system: SK-MEL-28
[8] = test system: RPMI-8226
[9] = test system: DU-145
[10] = test system: UACC-257
[11] = test system: OVCAR-4
[12] = test system: BT-549
[13] = test system: IGROV-1
[14] = test system: SNB-19
[15] = test system: T47D
[16] = test system: OVCAR-8
[17] = test system: HL-60
[18] = test system: TK-10
[19] = test system: SR
[20] = test system: SK-MEL-5
[21] = test system: OVCAR-3
[22] = test system: PC-3
[23] = test system: OVCAR-5
[24] = test system: SNB-75
[25] = test system: K562
[26] = test system: HOP-92
[27] = test system: SF-539
[28] = test system: A549
[29] = test system: M14
[30] = test system: ACHN
[31] = test system: MCF7
[32] = test system: HCT-15
[33] = test system: UACC-62
[34] = test system: CAKI-1
[35] = test system: HT-29
[36] = test system: UO-31
[37] = test system: KM12
[38] = test system: 786-0
[39] = test system: HCC 2998
[40] = test system: NCI-H522
[41] = test system: MDA-MB-231
[42] = test system: CCRF-CEM
[43] = test system: HOP-62
[44] = test system: U-251
[45] = test system: Malme-3M
[46] = test system: SW-620
[47] = test system: LOX IMVI
[48] = test system: RXF 393
[49] = test system: SF-268
[50] = test system: HCT-116
[51] = test system: NCI-H226
[52] = test system: SN12C
[53] = test system: NCI-H23
[54] = test system: SF-295
[55] = test system: MDA-N

Measured: GI50

O=c1ccn(C2OC(CO)C(P(=O)(O)O)C2O)c(=O)[nH]1 (stereo not given)
inactive: [1] > 100 µM | [2] > 100 µM | [3] > 100 µM | [4] > 100 µM | [5] > 100 µM | [6] > 100 µM | [7] > 100 µM | [8] > 100 µM | [9] > 100 µM | [10] > 100 µM | [11] > 100 µM | [12] > 100 µM | [13] > 100 µM | [14] > 100 µM | [15] > 100 µM | [16] > 100 µM | [17] > 100 µM | [18] > 100 µM | [19] > 100 µM | [20] > 100 µM | [21] > 100 µM | [22] > 100 µM | [23] > 100 µM | [24] > 100 µM | [25] > 100 µM | [26] > 100 µM | [27] > 100 µM | [28] > 100 µM | [29] > 100 µM | [30] > 100 µM | [31] > 100 µM | [33] > 100 µM | [34] > 100 µM | [35] > 100 µM | [36] > 100 µM | [37] > 100 µM | [38] > 100 µM | [39] > 100 µM | [40] > 100 µM | [41] > 100 µM | [42] > 100 µM | [43] > 100 µM | [44] > 100 µM | [45] > 100 µM | [46] > 100 µM | [47] > 100 µM | [48] > 100 µM | [49] > 100 µM | [50] > 100 µM | [51] > 100 µM | [52] > 100 µM | [53] > 100 µM | [54] > 100 µM | [55] > 100 µM
> 100 µM: [32]
